Measured values reported in patent US20150125509A1, “TREATMENT OF FISH POPULATIONS WITH LUFENURON” (priority 2012, published 2015).

Columns and labels:
[1] = system: sea louse; settings: injectable, WO99/063824; cited from earlier work
[2] = system: L. salmonis; test: Example 1: in-feed treatment in sea water, natural sea louse infestation, L. salmonis counts; type: in vivo, Lepeophtheirus salmonis on Atlantic Salmon, S. salar; settings: for L. salmonis: all stages, Treated, average group counts / L. salmonis: pre- & adults, Efficacy / L. salmonis: pre- & adults, Treated, average group counts: sea water
Method: Three groups of 150 salmon (Atlantic Salmon, S. salar) of average weight 238 g were treated with medicated pellets containing lufenuron at a dose of respectively 3, 5 and 10 mg/kg/day during 7 consecutive days. The medicated pellets were prepared by dry coating commercially available fish feed pellets with a lufenuron-containing pre-mix to reach a content of 0.03, 0.05 and 0.1% (w/w) lufenuron in the fish feed and administered at a 1% feeding rate. The treatment was carried out in sea water.
Each group was maintained in a separate cage. A fourth cage containing 150 salmon of average weight 238 g was added to the study as a non-treated control group.
After treatment, the fish were exposed to natural sea louse infestation for a period of 9 months. During the study the water temperature varied between 4 and 12° C. Fish weight and sea louse numbers were assessed 1 day post-treatment, 1 week post-treatment and afterwards on a monthly basis until month 9. Counts were conducted on 10 fish at each sampling occasion. The numbers of chalimus, pre-adults and adult male, mobile and mature female L. salmonis were recorded for each fish. No distinction was made between chalimus stages I-IV or between pre-adult and adult male stages.
Efficacy was calculated using the formula:
% Efficacy=100−(100×mean of treatment group/mean of control).

[3] = 3 mg/kg/day 7 days in-feed, 1 month post-treatment
[4] = 3 mg/kg/day 7 days in-feed, 1 week post-treatment
[5] = 3 mg/kg/day 7 days in-feed, 2 month post-treatment
[6] = 3 mg/kg/day 7 days in-feed, 3 month post-treatment
[7] = 3 mg/kg/day 7 days in-feed, 4 month post-treatment
[8] = 3 mg/kg/day 7 days in-feed, 5 month post-treatment
[9] = 3 mg/kg/day 7 days in-feed, 6 month post-treatment
[10] = 3 mg/kg/day 7 days in-feed, 1 day post-treatment
[11] = 5 mg/kg/day 7 days in-feed, 1 month post-treatment
[12] = 5 mg/kg/day 7 days in-feed, 1 week post-treatment
[13] = 5 mg/kg/day 7 days in-feed, 2 month post-treatment
[14] = 5 mg/kg/day 7 days in-feed, 3 month post-treatment
[15] = 5 mg/kg/day 7 days in-feed, 4 month post-treatment
[16] = 5 mg/kg/day 7 days in-feed, 5 month post-treatment
[17] = 5 mg/kg/day 7 days in-feed, 6 month post-treatment
[18] = 5 mg/kg/day 7 days in-feed, 7 month post-treatment
[19] = 5 mg/kg/day 7 days in-feed, 8 month post-treatment
[20] = 5 mg/kg/day 7 days in-feed, 9 month post-treatment
[21] = 5 mg/kg/day 7 days in-feed, 1 day post-treatment
[22] = 10 mg/kg/day 7 days in-feed, 1 month post-treatment
[23] = 10 mg/kg/day 7 days in-feed, 1 week post-treatment
[24] = 10 mg/kg/day 7 days in-feed, 2 month post-treatment
[25] = 10 mg/kg/day 7 days in-feed, 3 month post-treatment
[26] = 10 mg/kg/day 7 days in-feed, 4 month post-treatment
[27] = 10 mg/kg/day 7 days in-feed, 5 month post-treatment
[28] = 10 mg/kg/day 7 days in-feed, 6 month post-treatment
[29] = 10 mg/kg/day 7 days in-feed, 7 month post-treatment
[30] = 10 mg/kg/day 7 days in-feed, 8 month post-treatment
[31] = 10 mg/kg/day 7 days in-feed, 9 month post-treatment
[32] = 10 mg/kg/day 7 days in-feed, 1 day post-treatment

## O=C(NC(=O)c1c(F)cccc1F)Nc1cc(Cl)c(OC(F)(F)C(F)C(F)(F)F)cc1Cl (centres unmarked) [lufenuron, N-{[2,5-Dichlor-4-(1,1,2,3,3,3-hexafluorpropoxy)phenyl]carbamoyl}-2,6-difluorbenzamid]
[1]
  protection against sea louse infestation after injection: 128 days
[2]; [3]
  L. salmonis: all stages, Treated, average group counts: 0.00
  L. salmonis: pre- & adults, Efficacy: 100%
  L. salmonis: pre- & adults, Treated, average group counts: 0.00
[2]; [4]
  L. salmonis: all stages, Treated, average group counts: 0.10
  L. salmonis: pre- & adults, Treated, average group counts: 0.10
[2]; [5]
  L. salmonis: all stages, Treated, average group counts: 0.30
  L. salmonis: pre- & adults, Efficacy: 95%
  L. salmonis: pre- & adults, Treated, average group counts: 0.10
[2]; [6]
  L. salmonis: all stages, Treated, average group counts: 0.20
  L. salmonis: pre- & adults, Efficacy: 95%
  L. salmonis: pre- & adults, Treated, average group counts: 0.10
[2]; [7]
  L. salmonis: all stages, Treated, average group counts: 0.00
  L. salmonis: pre- & adults, Efficacy: 100%
  L. salmonis: pre- & adults, Treated, average group counts: 0.00
[2]; [8]
  L. salmonis: all stages, Treated, average group counts: 0.10
  L. salmonis: pre- & adults, Efficacy: 97%
  L. salmonis: pre- & adults, Treated, average group counts: 0.10
[2]; [9]
  L. salmonis: all stages, Treated, average group counts: 1.30
  L. salmonis: pre- & adults, Efficacy: 50%
  L. salmonis: pre- & adults, Treated, average group counts: 1.30
[2]; [10]
  L. salmonis: all stages, Treated, average group counts: 0.10
  L. salmonis: pre- & adults, Treated, average group counts: 0.10
[2]; [11]
  L. salmonis: all stages, Treated, average group counts: 1.90
  L. salmonis: pre- & adults, Efficacy: 90%
  L. salmonis: pre- & adults, Treated, average group counts: 0.10
[2]; [12]
  L. salmonis: all stages, Treated, average group counts: 0.00
  L. salmonis: pre- & adults, Treated, average group counts: 0.00
[2]; [13]
  L. salmonis: all stages, Treated, average group counts: 0.00
  L. salmonis: pre- & adults, Efficacy: 100%
  L. salmonis: pre- & adults, Treated, average group counts: 0.00
[2]; [14]
  L. salmonis: all stages, Treated, average group counts: 0.20
  L. salmonis: pre- & adults, Efficacy: 91%
  L. salmonis: pre- & adults, Treated, average group counts: 0.20
[2]; [15]
  L. salmonis: all stages, Treated, average group counts: 0.10
  L. salmonis: pre- & adults, Efficacy: 96%
  L. salmonis: pre- & adults, Treated, average group counts: 0.10
[2]; [16]
  L. salmonis: all stages, Treated, average group counts: 0.10
  L. salmonis: pre- & adults, Efficacy: 97%
  L. salmonis: pre- & adults, Treated, average group counts: 0.10
[2]; [17]
  L. salmonis: all stages, Treated, average group counts: 0.60
  L. salmonis: pre- & adults, Efficacy: 77%
  L. salmonis: pre- & adults, Treated, average group counts: 0.60
[2]; [18]
  L. salmonis: all stages, Treated, average group counts: 1.80
  L. salmonis: pre- & adults, Efficacy: 88%
  L. salmonis: pre- & adults, Treated, average group counts: 0.60
[2]; [19]
  L. salmonis: all stages, Treated, average group counts: 0.50
  L. salmonis: pre- & adults, Efficacy: 90%
  L. salmonis: pre- & adults, Treated, average group counts: 0.50
[2]; [20]
  L. salmonis: all stages, Treated, average group counts: 0.40
  L. salmonis: pre- & adults, Efficacy: 94%
  L. salmonis: pre- & adults, Treated, average group counts: 0.40
[2]; [21]
  L. salmonis: all stages, Treated, average group counts: 0.00
  L. salmonis: pre- & adults, Treated, average group counts: 0.00
[2]; [22]
  L. salmonis: all stages, Treated, average group counts: 3.10
  L. salmonis: pre- & adults, Efficacy: 100%
  L. salmonis: pre- & adults, Treated, average group counts: 0.00
[2]; [23]
  L. salmonis: all stages, Treated, average group counts: 0.20
  L. salmonis: pre- & adults, Treated, average group counts: 0.00
[2]; [24]
  L. salmonis: all stages, Treated, average group counts: 0.00
  L. salmonis: pre- & adults, Efficacy: 100%
  L. salmonis: pre- & adults, Treated, average group counts: 0.00
[2]; [25]
  L. salmonis: all stages, Treated, average group counts: 0.10
  L. salmonis: pre- & adults, Efficacy: 95%
  L. salmonis: pre- & adults, Treated, average group counts: 0.10
[2]; [26]
  L. salmonis: all stages, Treated, average group counts: 0.00
  L. salmonis: pre- & adults, Efficacy: 100%
  L. salmonis: pre- & adults, Treated, average group counts: 0.00
[2]; [27]
  L. salmonis: all stages, Treated, average group counts: 0.00
  L. salmonis: pre- & adults, Efficacy: 100%
  L. salmonis: pre- & adults, Treated, average group counts: 0.00
[2]; [28]
  L. salmonis: all stages, Treated, average group counts: 0.30
  L. salmonis: pre- & adults, Efficacy: 96%
  L. salmonis: pre- & adults, Treated, average group counts: 0.10
[2]; [29]
  L. salmonis: all stages, Treated, average group counts: 0.80
  L. salmonis: pre- & adults, Efficacy: 98%
  L. salmonis: pre- & adults, Treated, average group counts: 0.10
[2]; [30]
  L. salmonis: all stages, Treated, average group counts: 0.10
  L. salmonis: pre- & adults, Efficacy: 98%
  L. salmonis: pre- & adults, Treated, average group counts: 0.10
[2]; [31]
  L. salmonis: all stages, Treated, average group counts: 0.00
  L. salmonis: pre- & adults, Efficacy: 100%
  L. salmonis: pre- & adults, Treated, average group counts: 0.00
[2]; [32]
  L. salmonis: all stages, Treated, average group counts: 0.00
  L. salmonis: pre- & adults, Treated, average group counts: 0.00
[2]; Example 1, 3 mg/kg treatment
  protected the fish against sea louse infestation until (time post-treatment): 5 months
[2]; Example 1, 5 mg/kg treatment
  protected the fish against sea louse infestation until (time post treatment): 9 months
[2]; Example 1, 10 mg/kg group
  efficacy against sea lice at all time points: more than 95%
[2]; Example 1, 10 mg/kg treatment
  protected the fish against sea louse infestation up to the end of the study (time post treatment): 9 months
